From patent publication US20180228775A1, “METHODS OF TREATING CANCER” (Dana-Farber Cancer Institute, Inc., priority 2014, published 2018)

Experiments:
[1] = system: human PBMC; experiment: Culture of human PBMC with GM-CSF (K562-GM) and PPAR-γ modulators: Treg numbers; type: cell-based
[2] = system: GM-CSF treated human monocytes; experiment: CCL17 and CCL22 expression by GM-CSF treated human monocytes (ELISA); type: cell-based; details: human monocytes with GM-CSF
Description: CCL17 levels were normalized to the number of monocytes per well.
FIG. 43: Role of PPAR-g in restraining Treg recruitment and expansion is conserved in GM-CSF treated human monocytes.
CCL17 levels were measured using ELISA (DY364, R&D Systems).
In addition, these cultures were treated with DMSO or Rosi.

Compound	Treg number ([1]; non-GM-CSF treated cultures (K562-WT))	Treg number / GM-CSF induced Treg expansion ([1]; human PBMC with GM-CSF (K562-GM), 10 uM Rosi or T0070907 luM every 48 hours, day 4-6)	CCL22 expression [2]	CCL17 expression ([2]; 10 uM Rosi, 5 days, ELISA)
CN(CCOc1ccc(CC2SC(=O)NC2=O)cc1)c1ccccn1 (stereo not shown) [Rosi, rosiglitazone]	no effect			
O=C(Nc1ccncc1)c1cc([N+](=O)[O-])ccc1Cl [T0070907]		increase	increasing	increasing
